Test results: patent US7799792B2, “Metabotropic glutamate receptor oxadiazole ligands and their use as potentiators 841” (AstraZeneca AB, priority 2007, dated 2010)
Values after ≈ are worked out from the molar mass of the structure shown.

Assays:
[1] = Aqueous solubility in pH 7.4 phosphate buffer; type: physicochemical; conditions: thermodynamic from solid, equilibration 24 h at 25° C., read-out: Aq. solubility
Procedure: Solubility was determined in pH 7.4 phosphate buffer after equilibration for 24 h at 25° C. and HPLC-UV and LC-MSMS were used for quantitation.

[2] = biological target: T1, human mGluR2 receptor (Homo sapiens, UniProt Q14416); test: [35S]-GTPγS binding assay of mGluR2 receptor activation (allosteric activator activity); type: biochemical; conditions: membranes from CHO cells stably expressing human mGluR2; 1 μM glutamate; read-out: GTPgS EC50
T1 construct: expressed in transfected cells; host or cells: CHO cells, stably transfected; membranes
T1 sequence (Q14416 19-872): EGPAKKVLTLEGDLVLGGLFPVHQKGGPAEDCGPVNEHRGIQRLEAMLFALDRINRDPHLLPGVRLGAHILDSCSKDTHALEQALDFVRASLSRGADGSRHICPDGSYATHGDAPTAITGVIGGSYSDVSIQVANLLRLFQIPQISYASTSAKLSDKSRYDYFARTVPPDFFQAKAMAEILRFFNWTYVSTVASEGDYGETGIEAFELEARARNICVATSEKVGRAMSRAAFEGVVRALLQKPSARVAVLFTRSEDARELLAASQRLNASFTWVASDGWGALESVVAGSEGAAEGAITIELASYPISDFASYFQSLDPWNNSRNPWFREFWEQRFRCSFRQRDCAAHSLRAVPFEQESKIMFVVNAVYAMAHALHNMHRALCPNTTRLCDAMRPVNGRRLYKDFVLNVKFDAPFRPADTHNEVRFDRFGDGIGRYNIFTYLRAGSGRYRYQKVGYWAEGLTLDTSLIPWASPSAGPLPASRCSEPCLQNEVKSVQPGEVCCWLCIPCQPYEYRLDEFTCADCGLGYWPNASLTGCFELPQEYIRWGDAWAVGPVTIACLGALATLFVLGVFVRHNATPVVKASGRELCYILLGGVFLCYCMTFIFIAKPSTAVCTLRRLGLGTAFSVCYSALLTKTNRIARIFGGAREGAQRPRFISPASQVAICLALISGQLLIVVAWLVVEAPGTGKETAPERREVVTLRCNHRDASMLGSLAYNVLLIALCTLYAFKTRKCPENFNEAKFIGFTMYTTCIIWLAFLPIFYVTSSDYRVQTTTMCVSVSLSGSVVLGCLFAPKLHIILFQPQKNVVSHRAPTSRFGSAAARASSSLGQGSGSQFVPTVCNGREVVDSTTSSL
Procedure: A [^35S]-GTPγS binding assay was used to functionally assay mGluR2 receptor activation. The allosteric activator activity of compounds at the human mGluR2 receptor were measured using a [^35S]-GTPγS binding assay with membranes prepared from CHO cells which stably express the human mGluR2. The assay is based upon the principle that agonists bind to G-protein coupled receptors to stimulate GDP-GTP exchange at the G-protein. Since [^35S]-GTPγS is a non-hydrolyzable GTP analog, it can be used to provide an index of GDP-GTP exchange and, thus, receptor activation. The GTPγS binding assay therefore provides a quantitative measure of receptor activation.
Membranes were prepared from CHO cells stably transfected with human mGluR2. Membranes (30 μg protein) were incubated with test compound (3 nM to 300 μM) for 15 minutes at room temperature prior to the addition of 1 μM glutamate, and incubated for 30 min at 30° C. in 500 μl assay buffer (20 mM HEPES, 100 mM NaCl, 10 mM MgCl2), containing 30 μM GDP and 0.1 nM [^35S]-GTPγS (1250 Ci/mmol). Reactions were carried out in triplicate in 2 ml polypropylene 96-well plates. Reactions were terminated by vacuum filtration using a Packard 96-well harvester and Unifilter-96, GF/B filter microplates. The filter plates were washed 4×1.5 ml with ice-cold wash buffer (10 mM sodium phosphate buffer, pH 7.4). The filter plates were dried and 35 μl of scintillation fluid (Microscint 20) was added to each well. The amount of radioactivity bound was determined by counting plates on the Packard TopCount. Data was analyzed using GraphPad Prism, and EC50 and Emax values (relative to the maximum glutamate effect) were calculated using non-linear regression.

SMILES	solubility at 24 h [1]	EC50 [2]
Cc1cc(-c2noc(CN3C[C@@H]4C[C@H]3CN4)n2)cc2c1C(=O)N(Cc1ccc(OC(F)(F)F)cc1)C2 [Example 5, 5-[5-(2,5-diaza-bicyclo[2.2.1]hept-2-ylmethyl)-[1,2,4]oxadiazol-3-yl]-7-methyl-2-(4-trifluoromethoxybenzyl)-2,3-dihydroisoindol-1-one]	141 µM (≈ 70.4 µg/mL)	75 nM
Cc1cc(-c2noc(CN3CCNCC3)n2)cc2c1C(=O)N([C@@H](C)c1ccc(Cl)cc1)C2 [Example 6, 2-[(S)-1-(4-Chloro-phenyl)-ethyl]-7-methyl-5-(5-piperazin-1-ylmethyl-[1,2,4]oxadiazol-3-yl)-2,3-dihydro-isoindol-1-one]	96 µM (≈ 43.4 µg/mL)	47.8 nM
CC1(C)CN(Cc2nc(-c3cc(Cl)c4c(c3)CN(Cc3ccc(OC(F)(F)F)cc3)C4=O)no2)CCN1 [Example 11, 7-chloro-5-[5-(3,3-dimethyl-piperazin-1-ylmethyl)-[1,2,4]oxadiazol-3-yl]-2-(4-trifluoro-methoxybenzyl)-2,3-dihydroisoindol-1-one]	230 µM (≈ 123 µg/mL)	147 nM
Cc1cc(-c2noc(CN3CCNCC3)n2)cc2c1C(=O)N(Cc1ccc(Cl)cc1)C2 [Example 4, 2-(4-chlorobenzyl)-7-methyl-5-(5-piperazin-1-ylmethyl-[1,2,4]oxadiazol-3-yl)-2,3-dihydroisoindol-1-one]	166 µM (≈ 72.7 µg/mL)	317 nM
Cc1cc(-c2noc(CN3CCNC[C@@H]3C)n2)cc2c1C(=O)N(Cc1ccc(Cl)cc1)C2 [Example 9, 2-(4-chloro-benzyl)-7-methyl-5-[5-(2-methyl-piperazin-1-ylmethyl)-[1,2,4]oxadiazol-3-yl]-2,3-dihydroisoindol-1-one]	158 µM (≈ 71.4 µg/mL)	323 nM
O=C1c2c(Cl)cc(-c3noc(CN4CCNCC4)n3)cc2CN1Cc1ccc(OC(F)(F)F)cc1 [Example 1, 7-Chloro-5-(5-piperazin-1-ylmethyl-[1,2,4]oxadiazol-3-yl)-2-(4-trifluoromethoxybenzyl)-2,3-dihydroisoindol-1-one]	139 µM (≈ 70.6 µg/mL)	226 nM
O=C1c2c(Cl)cc(-c3noc(CN4CCNCC4)n3)cc2CN1Cc1ccc(Cl)cc1 [Example 2, 7-chloro-2-(4-chlorobenzyl)-5-(5-piperazin-1-ylmethyl-[1,2,4]oxadiazol-3-yl)-2,3-dihydroisoindol-1-one]	176 µM (≈ 80.7 µg/mL)	431 nM
Cc1cc(-c2noc(CN3C[C@@H]4C[C@H]3CN4)n2)cc2c1C(=O)N([C@@H](C)c1ccc(Cl)cc1)C2 [Example 7, 2-[(S)-1-(4-Chloro-phenyl)-ethyl]-5-{5-[(1S,4S)-1-(2,5-diaza-bicyclo[2.2.1]hept-2-yl)methyl]-[1,2,4]oxadiazol-3-yl}-7-methyl-2,3-dihydro-isoindol-1-one]	158 µM (≈ 73.3 µg/mL)	352 nM
Cc1cc(-c2noc(CN3CCNC[C@H]3C)n2)cc2c1C(=O)N(Cc1ccc(Cl)cc1)C2 [Example 8, 2-(4-chloro-benzyl)-7-methyl-5-[5-(2-methyl-piperazin-1-ylmethyl)-[1,2,4]oxadiazol-3-yl]-2,3-dihydroisoindol-1-one]	228 µM (≈ 103 µg/mL)	202 nM
Cc1cc(-c2noc(C(C)N3CCNCC3)n2)cc2c1C(=O)N(Cc1ccc(OC(F)(F)F)cc1)C2 (stereo not shown) [Example 12, 7-Methyl-5-[5-(1-piperazin-1-yl-ethyl)-[1,2,4]oxadiazol-3-yl]-2-(4-trifluoromethoxy-benzyl)-2,3-dihydro-isoindol-1-one]	182 µM (≈ 91.3 µg/mL)	307 nM
Cc1cc(-c2noc(C(C)N3CCNCC3)n2)cc2c1C(=O)N(Cc1ccc(Cl)cc1)C2 (stereo not shown) [Example 13, 2-(4-Chloro-benzyl)-7-methyl-5-[5-(1-piperazin-1-yl-ethyl)-[1,2,4]oxadiazol-3-yl]-2,3-dihydro-isoindol-1-one]	240 µM (≈ 108 µg/mL)	283 nM
Cc1cc(-c2noc(CN3CCNCC3)n2)cc2c1C(=O)N(Cc1ccc(OC(F)(F)F)cc1)C2 [Example 3, 7-methyl-5-(5-piperazin-1-ylmethyl-[1,2,4]oxadiazol-3-yl)-2-(4-trifluoro-methoxybenzyl)-2,3-dihydroisoindol-1-one]	111 µM (≈ 54.1 µg/mL)	147 nM
Cc1cc(-c2noc(C(C)N3CCNCC3)n2)cc2c1C(=O)N([C@@H](C)c1ccc(Cl)cc1)C2 (stereo partly drawn) [Example 14, 2-[(S)-1-(4-Chloro-phenyl)-ethyl]-7-methyl-5-[5-(1-piperazin-1-yl-ethyl)-[1,2,4]oxadiazol-3-yl]-2,3-dihydro-isoindol-1-one]	271 µM (≈ 126 µg/mL)	210 nM
Cc1cc(-c2noc(CN3CCNC(C)C3)n2)cc2c1C(=O)N(Cc1ccc(Cl)cc1)C2 (stereo not shown) [Example 10, 2-(4-chloro-benzyl)-7-methyl-5-[5-(3-methyl-piperazin-1-ylmethyl)-[1,2,4]oxadiazol-3-yl]-2,3-dihydroisoindol-1-one]	148 µM (≈ 66.9 µg/mL)	121 nM
